Data reported in patent US10173999B2, “Cyclic amine derivative and pharmaceutical use thereof” (Toray Industries, Inc., priority 2015, dated 2019).
Where a name gives a salt, the structure may show the parent alone.

Assays:
[1] = Stability test in human liver microsomes; assay type: in vitro ADME; conditions: pH 7.4; human liver microsomes 0.5 mg/mL, test compound 2 μmol/L, 37° C., 0-30 min; read-out: Hepatic intrinsic clearance, Human
Procedure: Experiment was performed using the compound of Example 11, Comparative Example 1 or Comparative Example 6 as a test compound and human liver microsomes (from Xenotech), monkey liver microsomes (from Xenotech), dog liver microsomes (from Xenotech) or mouse liver microsomes (from Xenotech) as the liver microsomes.
The reagents to be used in the stability test in liver microsomes were prepared as follows. A D-glucose 6-phosphate disodium salt (hereinafter referred to as G6P) was dissolved with distilled water to prepare an aqueous solution of G6P (100 mmol/L). Glucose 6-phosphate dehydrogenase (1000 units) from Yeast (hereinafter referred to as G6PDH) was dissolved with distilled water (5 mL) to prepare an aqueous solution of G6PDH (200 units/mL). MgCl2 was dissolved with distilled water to prepare an aqueous solution of MgCl2 (100 mmol/L). […]
With respect to the chromatogram of each well obtained by LC/MS analysis or LC/MS/MS analysis, the test compound residual ratio (%) at each reaction time t (min) was calculated based on the peak area at the reaction time of 0 minute as 100%. […]

Cr1: CD (SD) rats = test: Evaluation of safety in rat, two-week oral administration test; assay type: in vivo; conditions: oral
Procedure: As a test compound, the compound of Example 11 or Comparative Example 2 was used. The compound of Example 11 or Comparative Example 2 was administered orally to Cr1: CD (SD) rats (7 weeks old, female and male; from Charles River Laboratories, Inc.), for 2 weeks. Clinical observation, body weight measurement, food intake measurement, ophthalmologic examination (the compound of Example 11, alone), hematological examination, blood chemistry examination, urinalysis, bone marrow examination, pathological anatomical examination, organ weight measurement, histopathological examination and immunotoxicity test were carried out. In addition, toxicokinetics (TK) measurement was carried out on Day 1 and Day 14 after administration. It was confirmed that each test compound was exposed. The administration dose of a test compound was specified as 0, 250, 500, 1000 mg/kg/day and administration volume was specified as 10 mL/kg. As an administration solvent, phosphate-buffered saline was used for the compound of Example 11 and distilled water was used for the compound of Comparative Example 2.

SMILES	microsomal CLint at 2 μmol/L [1]	no observed adverse effect level (Cr1: CD (SD) rats; 2 weeks)	findings in examination items (Cr1: CD (SD) rats; up to 1000 mg/kg/day for 2 weeks)
CN(C)C1CCN(C(=O)CCc2nccn2C)CC1 [Comparative Example 1, 1-(4-(dimethylamino)piperidin-1-yl)-3-(1-methyl-1H-imidazol-2-yl)propan-1-one hydrochloride]	1 µL/min/mg	–	–
CN(C)C1CCN(C(=O)C[C@H](O)c2nccn2C)CC1 [Example 11, (S)-1-(4-(dimethylamino)piperidin-1-yl)-3-hydroxy-3-(1-methyl-1H-imidazol-2-yl)propan-1-one]	–	≥ 1000 mg/kg/day	abnormality was not observed
